# Assay results from US11840489B2, “Symbiosis-promoting agent and method for promoting symbiosis of arbuscular mycorrhizal fungi” (TOYOTA JIDOSHA KABUSHIKI KAISHA, priority 2020, dated 2023).
# Assays:
# [1] = system: arbuscular mycorrhizal fungi; assay: Infection rate of arbuscular mycorrhizal fungi in chives, soil with cystathionine, GSH or Phoron (Comparative Example 2); type: in vivo, Rhizophagus irregularis DAOM197198; conditions: 500 spores, 1 month, FIG. 6; for infection rate (amount of hyphae per root length): 0.1 or 1 mM in soil, vs control with 500 spores
# Method: (§1) Specifically, monocotyledonous plants of Allium (chives; Allium schoenoprasum) were infected with arbuscular mycorrhizal fungi (Rhizophagus irregularis DAOM197198), and the infection rate (%) of the mycorrhizal fungi that had invaded inside the roots was determined.
# (§2) Plants were infected with arbuscular mycorrhizal fungi in the same manner as in Example 2. That is, the medium (one-tenth of the amount, Hoagland No. 2 basal salt mixture (SIGMA), 0.1 mM KNO3) was added to fertilizer-free soil. As control samples, sterilized chive seeds were directly seeded in soil supplemented with spores of arbuscular mycorrhizal fungi (4,000 spores) and in soil supplemented with the spores and GSSG (10 or 100 microM). The plants were allowed to grow at 23 degrees C. with 16-hour light and 8-hour dark cycles for 4 weeks. Thereafter, chives were dug out, the arbuscular mycorrhizal fungi inside the root were stained with ink, and the infection rate of the mycorrhizal fungi (the amount of hyphae per root length (%)) was determined with observation under a microscope.
# In the same manner as in Example 3, the medium (one-tenth of the amount, Hoagland No. 2 basal salt mixture (SIGMA), 0.1 mM KNO3) was added to fertilizer-free soil. As control samples, sterilized chive seeds were directly seeded in soil supplemented with spores of arbuscular mycorrhizal fungi (500 spores and 1,000 spores) and in soil supplemented with the 500 spores, cystathionine (0.1 or 1 mM), GSH (0.1 or 1 mM), and Phoron (0.1 or 1 mM). The plants were allowed to grow at 23 degrees C. with 16-hour light and 8-hour dark cycles for 1 month. Thereafter, chives were dug out, the arbuscular mycorrhizal fungi inside the root were stained with ink, and the infection potential of the mycorrhizal fungi (the amount of hyphae per root length (%)) was determined with observation under a microscope.
# [2] = system: arbuscular mycorrhizal fungi; assay: Infection rate of arbuscular mycorrhizal fungi in chives, soil supplemented with cystathionine (Example 4); type: in vivo; conditions: 1 mM in soil, 4 weeks, vs cystathionine-free control, FIG. 4
# Method: Chives were used in this example. The medium (one-tenth of the amount, Hoagland No. 2 basal salt mixture (SIGMA), 0.1 mM KNO3) was added to fertilizer-free soil. As control samples, sterilized chive seeds were directly seeded in soil supplemented with spores of arbuscular mycorrhizal fungi (500 or 1,000 spores) and in soil supplemented with the spores and cystathionine (0.1 or 1 mM). The plants were allowed to grow at 23 degrees C. with 16-hour light and 8-hour dark cycles for 4 weeks. Thereafter, chives were dug out, the arbuscular mycorrhizal fungi inside the root were stained with ink, and the infection rate of the mycorrhizal fungi (the amount of hyphae per root length (%)) was determined with observation under a microscope.
# [3] = system: arbuscular mycorrhizal fungi (Rhizophagus irregularis DAOM197198); conditions: 30 degrees C., 1 week, FIG. 7
# Method: The modified M medium (0.3% gerlite, Becard and Fortin, 1988 New phytologist, 108, 211-218) was supplemented with oxidized glutathione (10 microM or 100 microM), spores of arbuscular mycorrhizal fungi (Rhizophagus irregularis DAOM197198) were inoculated, and culture was conducted at 30 degrees C. for 4 weeks. For comparison, arbuscular mycorrhizal fungi were cultured in the same manner, except that oxidized glutathione was not added. The number of hyphae elongated outside of the circle (a radius of 7.5 mm) centered on the inoculated portion of the medium was counted, and the extent of elongation was determined based on the number of spores.
# In the same manner as in Example 1, reduced glutathione (10 mM) was added to the modified M medium (0.3% gerlite), spores of arbuscular mycorrhizal fungi (Rhizophagus irregularis DAOM197198) were inoculated therein, and culture was conducted at 30 degrees C. for 1 week. For comparison, arbuscular mycorrhizal fungi were cultured in the same manner, except that reduced glutathione was not added.
# [4] = system: arbuscular mycorrhizal fungi (Rhizophagus irregularis DAOM197198); assay: Infection rate of arbuscular mycorrhizal fungi in roots of chives (Allium schoenoprasum) grown in supplemented soil (Example 3); type: in vivo; conditions: chives, 4,000 spores, 10 or 100 microM in soil, 4 weeks; vs control; Dunnett's test, n=8; FIG. 3
# Method: as §1, §2
# [5] = system: arbuscular mycorrhizal fungi (Rhizophagus irregularis DAOM197198); assay: Hyphal elongation of arbuscular mycorrhizal fungi in modified M medium, 4 weeks (Example 1); type: cell-based; conditions: 10 microM or 100 microM in medium, 30 degrees C., vs control without addition, p less than 0.05, Dunnett's test, n 16-19, FIG. 1
# [6] = system: arbuscular mycorrhizal fungi (Rhizophagus irregularis DAOM197198); assay: Infection rate of arbuscular mycorrhizal fungi in roots of Lotus japonicus grown in supplemented soil (Example 2); type: in vivo; conditions: Lotus japonicus, 4,000 spores, 4 weeks, FIG. 2
# Method: Specifically, plants of Leguminosae (Lotus japonicus) were infected with arbuscular mycorrhizal fungi (Rhizophagus irregularis DAOM197198) in soil supplemented with GSSG, and the infection rate (%) of the mycorrhizal fungi invaded inside the roots was determined.
# At the outset, the medium (one-tenth of the amount, Hoagland No. 2 basal salt mixture (SIGMA), 0.1 mM KNO3) was added to fertilizer-free soil. Also, control soil supplemented with spores of arbuscular mycorrhizal fungi (4,000 or 6,000 spores) and soil supplemented with spores of arbuscular mycorrhizal fungi (4,000 spores) and GSSG (10 or 100 microM) were prepared. Subsequently, seeds of Lotus japonicus (3 days after seeding) that had germinated in agar medium were transplanted therein. The plants were allowed to grow at 23 degrees C. with 16-hour light and 8-hour dark cycles for 4 weeks. Thereafter, Lotus japonicus was dug out, the arbuscular mycorrhizal fungi inside the root were stained with ink, and the infection rate of the mycorrhizal fungi (the amount of hyphae per root length (%)) was determined with observation under a microscope.
# [7] = system: root nodule bacteria (Mesorhizobium loti); assay: Root nodule bacterial infection of Lotus japonicus: root nodules and infection hyphae (Comparative Example 1); type: in vivo; conditions: 10 or 100 microM, FIG. 5
# Method: In this comparative example, root nodule bacteria from Lotus japonicus plants (Mesorhizobium loti, a transformant comprising a fluorescent protein (DsRED) introduced thereinto) were used. Vermiculite was supplemented with B&D medium (Broughton and Dilworth, 1971), KNO3 (final concentration: 0.1 mM), root nodule bacteria, and oxidized glutathione at 0, 10, or 100 microM to prepare media. The resulting media (50 ml) were added to 300 ml of fertilizer-free soil (vermiculite) in a pot, and young plants of Lotus japonicus 3 days after seeding were planted therein. The infection hyphae that serve as the routes of infection with root nodule bacteria formed in the root hair cells of Lotus japonicus and the root nodules that are symbiotic organs formed in the roots of Lotus japonicus were examined 1 week and 2 weeks after the growth.
compound,measurement,setting,value
"CC(C)=CC(=O)C=C(C)C [Phoron, reference compound]",infection rate (amount of hyphae per root length),[1],inhibited
"NC(CCSCC(N)C(=O)O)C(=O)O (centres unmarked) [cystathionine, 2-amino-4-(2-amino-2-carboxy-ethyl)thio-butanoic acid]",infection rate of the mycorrhizal fungi (amount of hyphae per root length),[2],significantly enhanced
same,"infection rate compared with the sample supplemented with 1,000 spores",[1]; 1 mM,equivalent
same,infection rate (amount of hyphae per root length),[1],enhanced
"N[C@@H](CCC(=O)N[C@@H](CS)C(=O)NCC(=O)O)C(=O)O [reduced glutathione, N—(N-gamma-L-glutamyl-L-cysteinyl)glycine]",infection rate (amount of hyphae per root length),[1],inhibited
same,hyphal elongation of arbuscular mycorrhizal fungi at high concentration,[3]; 10 mM,no hyphal elongation was observed
same,spore survival,[3]; 10 mM,died
same,hyphal elongation of arbuscular mycorrhizal fungi,"[3]; medium supplemented with reduced glutathione, vs no addition",deteriorated hyphal elongation
oxidized glutathione,infection rate of the mycorrhizal fungi (amount of hyphae per root length),[4],significantly enhanced
same,"hyphal elongation (number of hyphae elongated outside circle of radius 7.5 mm, per number of spores)",[5],significant effects of promoting hyphal elongation
same,"infection rate compared with control inoculated with 1.5 times greater amount of spores (6,000 spores)",[6]; 10 microM,equivalent
same,infection rate of the mycorrhizal fungi (amount of hyphae per root length),"[6]; 10 or 100 microM in soil, vs GSSG-free control (4,000 spores), Dunnett's test, n=8",significantly enhanced
same,"infection rate compared with control inoculated with 1.5 times greater amount of spores (6,000 spores)",[6]; 100 microM,enhance
same,formation of infection hyphae,[7]; 1 week after the growth,significant inhibitory effects
same,formation of root nodules,[7]; 1 week after the growth,significant inhibitory effects
same,inhibitory effects on formation of infection hyphae,[7]; 2 weeks after the growth,not observed
same,inhibitory effects on formation of root nodules,[7]; 2 weeks after the growth,not observed
